# What was measured:
# [1] = tested on: healthy participants; details: propofol during placebo infusion
# [2] = clinical; details: for AUC(0-t): both, human, plasma, intravenous, propofol Mean AUClast
# Description: A study is conducted for Compound A. The study is a 3-period, randomized, placebo-controlled, double-blind, crossover study in healthy subjects. The primary objective of the study was to determine the safety and tolerability of Compound A in healthy participants after low and high doses of Compound A under hypoxic and hypercapnic conditions in conjunction with low and high doses of propofol. Another primary objective of the study was to determine the ventilatory response of low and high doses of Compound A under hypoxic and hypercapnic conditions in conjunction with low and high doses of propofol. A secondary objective of the study was to determine the cardiovascular response of low and high doses of Compound A during hypoxic and hypercapnic conditions in conjunction with low and high doses of propofol. Another secondary objective of the study was to evaluate the ventilatory response after administration of Compound A and propofol, under different ventilatory conditions: hypoxia and hyperoxic exposure at normocapnia followed by the same sequence at hypercapnia. The study was conducted in conformance with Good Clinical Practice. The study was a randomized, double-blinded, placebo-controlled, three-way crossover study to assess the safety, tolerability, respiratory PD, and PK of Compound A in healthy male and female participants. Subjects were initially screened up to 6 weeks prior to randomization. Following successful initial medical screening, they were scheduled for the study and receive a randomization number. Subjects underwent 3 separate treatment periods. In each of these periods, low or high doses of Compound A or placebo were continuously perfused throughout for a period of 270 minutes. During each period, subjects received different intravenous propofol dosages or placebo in set order: placebo—propofol low dose—propofol high dose. Each treatment session of propofol or placebo is […]. During each propofol treatment session, different ventilatory conditions are applied, hypoxia and hypercapnia (FIG. 1). […] Each assessment period (i.e., “run”) consists of a hypoxia/hyperoxic exposure at normocapnia followed by one the same sequence at hypercapnia. […] The participants received the following treatments in random order during the dosing periods: • Placebo+placebo/propofol low/propofol high/ • Compound A low+placebo/propofol low/propofol high • Compound A high+placebo/propofol low/propofol high Subjects were admitted to study site on Day −1 for pre-dose activities and eligibility was reassessed and stayed overnight. On each dosing day (Day 1), subjects were transferred to a special unit at study site in the morning (or early afternoon) after a minimum 8 hour overnight fasting. After placement of the respiratory and cardiovascular monitoring/assessment devices including an arterial line, subjects assumed the semi-recumbent position and sufficient time was allowed for subjects to resume a normal breathing pattern. After completion of baseline evaluations, all measurements were performed as per the schedule of assessments. Upon completion of all measurements on the dosing day, subjects were monitored overnight and assessed the next morning (at least 12 hours post study treatments) prior to discharge (Day 2). Subjects were not immediately discharged in cases where prolonged care is required (e.g., due to adverse event, residual sedation etc.) and were treated as necessary. Duration of Treatment: Participation was approximately 10 weeks divided as follows: • Screening: Up to 42 days before first dosing • Treatment phase of approximately 21 days, including three treatment and study assessment periods of 3 days each with approximately 7 days (minimum of 3) between dosing days • Follow up 7 days after last dosing Healthy adult subjects were selected for the study.
# [3] = during infusion with Compound A high dose
# [4] = during infusion with Compound A low dose
smiles,measurement,setting,value
CC(C)c1cccc(C(C)C)c1O [propofol],Effect of propofol on hypoxic sensitivity,[1],decreased hypoxic sensitivity
same,AUC(0-t),[2]; [3],6150 ± 1170 ng·h/mL
same,AUC(0-t),[2]; [4],5750 ± 1180 ng·h/mL
same,AUC(0-t),[2]; during infusion with placebo,4600 ± 548 ng·h/mL
same,"propofol peak plasma concentration, mean (±SD)",[2]; [3],2620.0 ± 1093.86 ng/mL
same,"propofol peak plasma concentration, mean (±SD)",[2]; [4],2534.2 ± 1192.34 ng/mL
same,"propofol peak plasma concentration, mean (±SD)",[2]; during infusion with placebo,1880.8 ± 265.45 ng/mL
same,Propofol plasma concentrations during infusion with Compound A compared to placebo infusion,[2]; in vivo,tended to be higher during infusion with Compound A
same,Propofol plasma concentrations versus targeted concentration,"[2]; propofol high dose infusion, target 1200 ng/mL",exceeding those targeted
same,propofol Geometric mean Cav200-270 min,"[2]; propofol high dose interval, range across treatments",1525.12 to 1862.45 ng/mL
same,propofol Geometric mean Cav115-185 min,"[2]; propofol low dose interval, range across treatments",452.62 to 559.80 ng/mL

# From patent US12138267B2, “Methods of treating respiratory depression modulated by a non-opioid agent” (Enalare Therapeutics Inc., priority 2021, dated 2024)
